Experimental data as given in US10772909B2, “System and method for insulin-mimetic of cartilage, bone, or osteochondral repair and piezoelectric composite scaffold” (New Jersey Institute of Technology, priority 2016, dated 2020).
Like-named read-outs stand apart in the source and are kept apart here.

Tests used:
aggrecan = assay: Chondrogenesis culture: gene expression by RT-PCR, aggrecan; assay type: cell-based, human; conditions: for aggrecan gene expression vs 0 and 1 mM groups: CCM without insulin
Experimental: (§1) Chondrogenesis Culture. Cryopreserved MSCs were thawed and expanded in GM until 70-80% confluent. Cells were trypsininzed and then seeded on 6 mm diameter scaffold disks at 1.76×10^5 cells/cm^2 and cultured for 28 days in GM, chondrogenic induction medium (CCM), or CCM without insulin, according to previously published methods. CCM consisted of DMEM high glucose containing 4 mM L-glutamine (Invitrogen, Grand Island, N.Y., USA), 0.1 μM dexamethasone (Sigma-Aldrich), 0.17 mM ascorbic acid-2-phosphate (Wako Chemicals, Richmond, Va., USA), 1% ITS+(6.25 µg/mL insulin, 6.25 µg/mL transferrin, 6.25 ng/mL selenous acid, 5.35 μg/ml linoleic acid and 1.25 mg of bovine serum albumin) Premix Culture Supplement (Corning, Corning, N.Y., USA), 1× antibiotic-antimycotic, 1 mM sodium pyruvate (Sigma-Aldrich), 0.35 mM proline (Sigma-Aldrich), and 10 ng/mL recombinant human transforming growth factor-beta3 (TGF-β3, ProSpec, Israel). CCM without insulin consisted of CCM where the 1% ITS+Premix Culture Supplement was substituted with 1% stock solution (6.25 μg/ml transferrin and 6.25 ng/ml selenous acid, 5.35 μg/ml lionleic acid (Sigma-Aldrich) and 1.25 mg of bovine serum albumin (Fisher Scientific). Na2WO4 was added to all media leading to final Na2WO4 concentrations of 0, 0.01, 0.1 and 1 mM. Samples were harvested and analyzed for sulfated glycosaminoglycans (sGAG), cell number and gene expression at day 14 and 28 and for collagen type II and immunostaining at day 28.
(§2) Gene expression was evaluated using quantitative reverse transcription (RT)-polymerase chain reaction (PCR) analysis. RT-PCR was performed with RNeasy Micro Kit and SYBR Green RT-PCR Kit (Qiagen; Valencia, Calif., USA) using the MX4000 detection system (Stratagene) according to the manufacturer's protocol. Relative gene expression of SOX-9, aggrecan and collagen type II were determined. Samples (n=4 per group) were harvested and digested using Lysis Buffer. RNA was isolated from the samples using RNeasy Micro Kit (Qiagen) including DNA digestion step (RNase Free DNase Set; Qiagen). The RNA quantity and integrity were determined by measuring the absorbance at 260 nm and the absorbance ratio of 260 nm/280 nm, respectively, using Nanodrop™ Spectrophotometer (Thermo Fisher Scientific). Quantitative PCR analysis was performed using QuantiTect SYBR Green supermix including the QuantiTect Primer Assays. The reverse transcription step ran for 30 minutes at 50° C., 15 minutes at 95° C. of PCR activation followed by forty cycle of amplification consisting of 15 s denaturation at 94° C., 30 s of annealing at 55° C., and 30 s of extension at 72° C. A melting curve analysis of the RT-PCR product was included for each reaction. Samples were analyzed in triplicate and the value of each gene was normalized to the reference gene ribosomal protein, large, P0 (RPLP0) for the same sample (ΔCT). Primers were purchased from Qiagen (Hs_ACAN, QT00001365; Hs_SOX9, QT00001498; Hs_COL2A1, QT00049518; and Hs_RPLP0 QT00075012).

Human MSCs = assay: Chondrogenesis culture: cell number (PicoGreen); assay type: cell-based
Experimental: as §1
Production of sGAG and cell number were determined. Samples were digested using papain (Sigma-Aldrich, Mo., USA) buffer overnight at 65 C. ° following manufacturer's protocol. The sGAG assay is used to measure the total sulfated proteoglycan content using Blyscan sGAG Assay Kit (Biocolor, UK). Cell lysate of samples (n=4 per group) and color reagent were combined in transparent 96-well plate and the absorbance at 656 nm was measured using a microplate spectrophotometer (EMax, Molecular Devices, Melville, N.Y., USA). sGAG concentration was determined relative to chondroitin sulfate standard curve. PicoGreen® ds DNA assay (Life Technologies) was used to determine the cell number. MSCs of known cell number were used as standards. Standards were prepared by lysing the cells using papain buffer. The cell lysate of samples and standards (n=4 per group) was mixed with an equal volume of Pico Green reagent. Fluorescence intensity was measured with a microplate reader ((FLX800, Biotek Instruments, Vt., USA)) at 480 nm excitation and 520 nm emission. A standard curve of known cell number was used to determine the sample cell number. GAG production was normalized to cell number.

PBMCs = assay: CellTiter-Blue viability assay; assay type: cell-based, human; conditions: 0.01, 0.1 and 1 mM Na2WO4; 4 days exposure
Experimental: CellTiter-Blue Assay (Promega, Madison, Wis.) was used to assess the viability of PBMCs. Cell Titre Blue was used to measure the metabolic activity of PBMCs as a surrogate for cell number. Each experimental group was performed in triplicate in 96-well tissue culture plates. After 4 days, CellTiter-Blue reagent (20 μL/well) was added to each well. The plates were incubated and after 4 hours, the fluorescence intensity was measured with microplate reader (Synergy, HTX, BioTek, Winooski, Vt., USA) at 560/590 nm emission. Percent viability was calculated as the fluorescence reading of treated (stimulated) cells divided by untreated healthy cells, which were considered 100% viable as described in Greco et al..

[1] = tested on: human peripheral blood lymphocytes; conditions: cited from earlier work
collagen type II = assay: Chondrogenesis culture: gene expression by RT-PCR, collagen type II; assay type: cell-based, human; conditions: for collagen type II gene expression vs 0 and 1 mM groups: CCM without insulin, days 14 and 28; for collagen type II gene expression vs 0 mM: day 14
Experimental: as §1, §2

[Na+].[Na+].[O]=[W](=[O])([O-])[O-] [Na2WO4, sodium tungstate]
aggrecan gene expression vs 0 and 1 mM groups (aggrecan; 0.01 mM Na2WO4, days 14 and 28): significantly higher
aggrecan gene expression vs 0 mM (aggrecan; 0.01 mM Na2WO4, CCM, day 14, p<0.05): lower aggrecan expression
aggrecan gene expression vs 0 and 1 mM groups (aggrecan; 0.1 mM Na2WO4, days 14 and 28): significantly higher
aggrecan gene expression vs all groups (aggrecan; 0.1 mM Na2WO4, CCM, days 14 and 28): significantly higher
aggrecan gene expression (aggrecan; 1 mM Na2WO4, CCM): lowest gene expression
aggrecan gene expression (chondrogenic genes) (aggrecan; GM with Na2WO4): no significant upregulation of chondrogenic genes
cell number vs 0.1 mM (Human MSCs; 0.01 mM Na2WO4, CCM, day 28, p<0.05): significantly higher than 0.1 mM
cell number vs 0 mM (Human MSCs; 0.1 mM Na2WO4, GM, day 14): significantly higher
cell number vs other groups (Human MSCs; 1 mM Na2WO4, CCM): significantly lower
cell number vs all other groups (Human MSCs; 1 mM Na2WO4, CCM without insulin, day 28): significantly lower cell numbers
PBMC cell viability vs 0 mM (PBMCs): No significant differences in cell viability
immune response ([1]; 0.01 mM): did not stimulate an immune response
immune response ([1]; 0.1 mM): did not stimulate an immune response
toxicity ([1]; 1 mM dose): significant toxicity occurred
collagen type II gene expression, change between days 14 and 28 (collagen type II; 0.01 mM Na2WO4, CCM): significant increase in collagen type II expression
collagen type II gene expression vs 0 and 1 mM groups (collagen type II; 0.01 mM Na2WO4): significantly higher
collagen type II gene expression vs 0 mM (collagen type II; 0.01 mM Na2WO4, CCM, p<0.001): significantly higher collagen type II
collagen type II gene expression vs all groups (collagen type II; 0.01 mM Na2WO4, CCM, day 28, p<0.001): significantly higher
collagen type II gene expression vs 0 and 1 mM groups (collagen type II; 0.1 mM Na2WO4): significantly higher
collagen type II gene expression vs 0 mM (collagen type II; 0.1 mM Na2WO4, CCM, p<0.001): significantly higher collagen type II
collagen type II gene expression (collagen type II; 1 mM Na2WO4, CCM): lowest gene expression
collagen type II gene expression (chondrogenic genes) (collagen type II; GM with Na2WO4): no significant upregulation of chondrogenic genes
